# In patent publication US20260183356A1, “NOVEL COMBINATION BASED ON RIFAXIMIN AND PROBIOTIC YEASTS, COMPOSITIONS CONTAINING IT AND THEIR USE IN THERAPY” (NYUMA PHARMA SRL, priority 2022, published 2026):
# Key:
# [1] = test system: Escherichia coli ATCC 8739; test: Microdilution test, control bacterial strain Escherichia coli (growth abatement, OD600); type: cell-based
# Description: (§1) The test aims to assess the in vitro susceptibility of the yeast Kluyveromyces marxianus to the antibiotic rifaximin. The test is performed by assaying 8 scalar dilutions of rifaximin in liquid culture medium (microdilution). Bacterial strains are tested in parallel as controls. Rifaximin is a synthetic molecule derived from rifamycin. The powder is characterized by poor solubility in water and tendency to self-aggregate in the liquid phase. A preliminary step is then performed to set the solubility conditions of rifaximin at the highest concentration used in the test (0.5 mg/ml). The following strains were used • Kluyveromyces marxianus B099 • Bifidobacterium longum […] • Escherichia coli ATCC 8739 The Escherichia coli bacterial strain was revitalized from a reference stock suspension stored at -80° C. After thawing, working cultures were set up by growing the strain in suitable plate medium under the optimal growth conditions. The other strains were obtained after plating on agarized culture medium of the specific matrices and subsequent isolation of pure colonies. In Table 1 the strains and the growth and inoculation conditions are set forth. [table] In the microdilution test, broth-cultures of the test microorganisms are set up in triplicates in the presence of 8 different concentrations of rifaximin, which are selected in agreement with the client, and 1 concentration of rifamycin corresponding to the highest concentration selected for rifaximin. 100 μl of a solution, 2 times more concentrated (2×) than the desired concentration, and 100 μl of the microbial suspension at a titer given in Table 2.2.1, were added to each well of the 96-wells plates. The 8 concentrations of rifaximin are produced from the 50 mg/ml solution in DMSO in TSB and in parallel in SDB. The final test concentrations are as follows: 0.5 mg/ml-0.25 mg/ml-0.125 mg/ml-0.063 mg/ml-0.031 mg/ml-0.015 mg/ml-0.0078 mg/ml-0.0039 mg/ml. Following the absorbance measurement on the spectrophotometer, the mean of the data recorded for each concentration and the mean of the data from the controls in DMSO or sterile water are calculated. To estimate the microbial growth and determine MIC from the mean data obtained (in the test and controls), the blank data are subtracted and then the control data and the test data are compared with each other to assess any growth or growth inhibition of each strain tested. The growth inhibition is calculated as a percentage by the following formula: [formula] • wherein • A: Mean OD of control • B: Mean OD of the sample at the concentration tested • MIC is considered the lowest concentration of product that can give at least 90% growth inhibition. A solution of rifamycin is prepared, at the 50 mg/ml concentration in sterile water, which is then diluted in tryptic soy broth (TSB) and in parallel in Sabouraud dextrose broth (SDB) until the 0.5 mg/ml concentration used in the test is obtained. The plates are incubated at the optimal temperatures and growth conditions of the various strains tested as described in Example 5. After the days of incubation have passed, the absorbance at 600 nm (OD600) is measured by spectrophotometer. The mean values after subtracting the blank are used to estimate microbial growth and determine MIC.
# [2] = Preliminary solubilization test in DMSO; type: physicochemical; conditions: starting stock solution
# Description: The test aims to assess the in vitro susceptibility of the yeast Kluyveromyces marxianus to the antibiotic rifaximin. The test is performed by assaying 8 scalar dilutions of rifaximin in liquid culture medium (microdilution). Bacterial strains are tested in parallel as controls. Rifaximin is a synthetic molecule derived from rifamycin. The powder is characterized by poor solubility in water and tendency to self-aggregate in the liquid phase. A preliminary step is then performed to set the solubility conditions of rifaximin at the highest concentration used in the test (0.5 mg/ml). The exploratory step is performed to set the solubilization conditions of rifaximin and the culture conditions of the microbial strains. Given the poor solubility of rifaximin powder in water and the tendency for self-aggregation in the liquid phase, a solubilization test in DMSO (dimethyl sulfoxide) is performed. […] The first concentration used in the test and the subsequent dilutions (set up in Tryptic soy broth-TSB or Sabouraud dextrose broth-SDB, base-2 serial dilutions) were defined in agreement with the client, based on literature data. The strains were expanded first in liquid medium and then in agarized medium, as described in Table 2.2.1, obtaining growth results that confirmed the use of these media and conditions for the microdilution test as well.
# [3] = test system: Kluyveromyces marxianus B099; test: Microdilution test, susceptibility of Kluyveromyces marxianus to the antibiotic (growth abatement, OD600); type: cell-based
# Description: as §1
# [4] = test system: Bifidobacterium longum W11; test: Microdilution test, control bacterial strain Bifidobacterium longum (growth abatement, OD600); type: cell-based; conditions: for Abatement of strain growth: Bifidobacterium longum W11
# Description: as §1
# [5] = rifamycin 0.5 mg/ml (stock in sterile water)
structure (smiles),measurement,setting,value
CO[C@H]1/C=C/O[C@@]2(C)Oc3c(C)c(O)c4c(O)c(c5c(nc6cc(C)ccn65)c4c3C2=O)NC(=O)/C(C)=C\C=C\[C@H](C)[C@H](O)[C@@H](C)[C@@H](O)[C@@H](C)[C@H](OC(C)=O)[C@@H]1C [rifaximin],"Growth inhibition, conclusion in words",[1],inhibits the growth
same,Growth inhibition,[1]; at ≥0.031 mg/ml concentrations,~99%
same,Abatement of strain growth,[1]; rifaximin 0.0039 mg/ml,45.7%
same,Abatement of strain growth,[1]; rifaximin 0.0078 mg/ml,54.9%
same,Abatement of strain growth,[1]; rifaximin 0.015 mg/ml,94.5%
same,Abatement of strain growth,[1]; rifaximin 0.031 mg/ml,>99.9%
same,Abatement of strain growth,[1]; rifaximin 0.063 mg/ml,99.6%
same,Abatement of strain growth,[1]; rifaximin 0.125 mg/ml,>99.9%
same,Abatement of strain growth,[1]; rifaximin 0.25 mg/ml,98.5%
same,Abatement of strain growth,[1]; rifaximin 0.5 mg/ml,98.1%
same,Highest concentration in DMSO with no visible precipitates and clear,[2],50 mg/mL
same,"Growth inhibition, conclusion in words",[3],does not inhibit the growth
same,Abatement of strain growth,[3]; rifaximin 0.0039 mg/ml,1.5%
same,Abatement of strain growth,[3]; rifaximin 0.0078 mg/ml,−1.7%
same,Abatement of strain growth,[3]; rifaximin 0.015 mg/ml,−3.3%
same,Abatement of strain growth,[3]; rifaximin 0.031 mg/ml,−2.1%
same,Abatement of strain growth,[3]; rifaximin 0.063 mg/ml,−2.6%
same,Abatement of strain growth,[3]; rifaximin 0.125 mg/ml,−3.5%
same,Abatement of strain growth,[3]; rifaximin 0.25 mg/ml,−1.2%
same,Abatement of strain growth,[3]; rifaximin 0.5 mg/ml,−4.7%
same,"Growth inhibition, conclusion in words",[4]; Bifidobacterium longum,inhibits the growth
same,Growth inhibition,"[4]; Bifidobacterium longum, virtually all concentrations except 0.0039 mg/ml",> 99.9%
same,Abatement of strain growth,[4]; rifaximin 0.0039 mg/ml,45.5%
same,Abatement of strain growth,[4]; rifaximin 0.0078 mg/ml,>99.9%
same,Abatement of strain growth,[4]; rifaximin 0.015 mg/ml,>99.9%
same,Abatement of strain growth,[4]; rifaximin 0.031 mg/ml,>99.9%
same,Abatement of strain growth,[4]; rifaximin 0.063 mg/ml,>99.9%
same,Abatement of strain growth,[4]; rifaximin 0.125 mg/ml,>99.9%
same,Abatement of strain growth,[4]; rifaximin 0.25 mg/ml,98.7%
same,Abatement of strain growth,[4]; rifaximin 0.5 mg/ml,>99.9%
CO[C@H]1/C=C/O[C@@]2(C)Oc3c(C)c(O)c4c(O)c(cc(O)c4c3C2=O)NC(=O)/C(C)=C\C=C\[C@H](C)[C@H](O)[C@@H](C)[C@@H](O)[C@@H](C)[C@H](OC(C)=O)[C@@H]1C [rifamycin],"Growth inhibition, conclusion in words",[1],inhibits the growth
same,Abatement of strain growth,[1]; [5],79.7%
same,"Growth inhibition, conclusion in words",[3],inhibits the growth
same,Abatement of strain growth,[3]; [5],88.9%
same,"Growth inhibition, conclusion in words",[4]; Bifidobacterium longum,inhibits the growth
same,Abatement of strain growth,[4]; [5],87.5%
